From PubChem BioAssay (NCI)
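Cells were grown in 96-well plates and exposed to each compound for 48 hours at five concentrations; endpoints were interpolated linearly between bracketing concentrations, or set to the highest concentration if not reached. The concentration for full growth arrest is given as TGI.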

Columns and labels:
Assay in all cases: growth of human tumour cells (NCI), 48 h
KM12 colon = tested on: KM12 colon
DU-145 prostate = tested on: DU-145 prostate
SNB-19 CNS = tested on: SNB-19 CNS
EKVX NSCLC = tested on: EKVX NSCLC
OVCAR-3 ovarian = tested on: OVCAR-3 ovarian
HOP-62 NSCLC = tested on: HOP-62 NSCLC
MDA-MB-435 = tested on: MDA-MB-435
SK-MEL-28 melanoma = tested on: SK-MEL-28 melanoma
IGROV1 ovarian = tested on: IGROV1 ovarian
MDA-N = tested on: MDA-N
NCI-H522 lung = tested on: NCI-H522 lung
786-0 renal = tested on: 786-0 renal
HS 578T breast = tested on: HS 578T breast
PC-3 prostate = tested on: PC-3 prostate
NCI-H460 lung = tested on: NCI-H460 lung
A498 renal = tested on: A498 renal
NCI/ADR-RES ovarian = tested on: NCI/ADR-RES ovarian
MOLT-4 leukemia = tested on: MOLT-4 leukemia
TK-10 renal = tested on: TK-10 renal
COLO 205 colon = tested on: COLO 205 colon
CCRF-CEM leukemia = tested on: CCRF-CEM leukemia
MDA-MB-231 breast = tested on: MDA-MB-231 breast
NCI-H226 lung = tested on: NCI-H226 lung
SK-MEL-5 melanoma = tested on: SK-MEL-5 melanoma
HCT-116 colon = tested on: HCT-116 colon
SF-268 CNS = tested on: SF-268 CNS
HL-60(TB) leukemia = tested on: HL-60(TB) leukemia
OVCAR-4 ovarian = tested on: OVCAR-4 ovarian
SW-620 colon = tested on: SW-620 colon
K-562 leukemia = tested on: K-562 leukemia
SNB-75 CNS = tested on: SNB-75 CNS
MCF7 breast = tested on: MCF7 breast
A549 NSCLC = tested on: A549 NSCLC
SF-295 CNS = tested on: SF-295 CNS
CAKI-1 renal = tested on: CAKI-1 renal
OVCAR-5 ovarian = tested on: OVCAR-5 ovarian
RPMI-8226 leukemia = tested on: RPMI-8226 leukemia
OVCAR-8 ovarian = tested on: OVCAR-8 ovarian
M14 melanoma = tested on: M14 melanoma
SF-539 CNS = tested on: SF-539 CNS
ACHN renal = tested on: ACHN renal
SR leukemia = tested on: SR leukemia
UACC-62 melanoma = tested on: UACC-62 melanoma
HCT-15 colon = tested on: HCT-15 colon
UACC-257 melanoma = tested on: UACC-257 melanoma
LOX IMVI melanoma = tested on: LOX IMVI melanoma
BT-549 breast = tested on: BT-549 breast
SK-OV-3 ovarian = tested on: SK-OV-3 ovarian
HT29 colon = tested on: HT29 colon
SN12C renal = tested on: SN12C renal
T-47D breast = tested on: T-47D breast
U251 CNS = tested on: U251 CNS
UO-31 renal = tested on: UO-31 renal
SK-MEL-2 melanoma = tested on: SK-MEL-2 melanoma
NCI-H23 lung = tested on: NCI-H23 lung
RXF 393 renal = tested on: RXF 393 renal
MALME-3M melanoma = tested on: MALME-3M melanoma

## O=C(N=c1ccc2nc(=O)[nH]n(O)c-2c1)C(F)(F)F
KM12 colon
  TGI: > 100 µM
DU-145 prostate
  TGI: > 100 µM
SNB-19 CNS
  TGI: > 100 µM
EKVX NSCLC
  TGI: > 100 µM
OVCAR-3 ovarian
  TGI: > 100 µM
HOP-62 NSCLC
  TGI: > 100 µM
MDA-MB-435
  TGI: > 100 µM
SK-MEL-28 melanoma
  TGI: > 100 µM
IGROV1 ovarian
  TGI: > 100 µM
MDA-N
  TGI: > 100 µM
NCI-H522 lung
  TGI: > 100 µM
786-0 renal
  TGI: > 100 µM
HS 578T breast
  TGI: > 100 µM
PC-3 prostate
  TGI: > 100 µM
NCI-H460 lung
  TGI: > 100 µM
A498 renal
  TGI: > 100 µM
NCI/ADR-RES ovarian
  TGI: > 100 µM
MOLT-4 leukemia
  TGI: > 100 µM
TK-10 renal
  TGI: > 100 µM
COLO 205 colon
  TGI: > 100 µM
CCRF-CEM leukemia
  TGI: > 100 µM
MDA-MB-231 breast
  TGI: > 100 µM
NCI-H226 lung
  TGI: > 100 µM
SK-MEL-5 melanoma
  TGI: > 100 µM
HCT-116 colon
  TGI: > 100 µM
SF-268 CNS
  TGI: > 100 µM
HL-60(TB) leukemia
  TGI: > 100 µM
OVCAR-4 ovarian
  TGI: > 100 µM
SW-620 colon
  TGI: > 100 µM
K-562 leukemia
  TGI: > 100 µM
SNB-75 CNS
  TGI: > 100 µM
MCF7 breast
  TGI: > 100 µM
A549 NSCLC
  TGI: > 100 µM
SF-295 CNS
  TGI: > 100 µM
CAKI-1 renal
  TGI: > 100 µM
OVCAR-5 ovarian
  TGI: > 100 µM
RPMI-8226 leukemia
  TGI: > 100 µM
OVCAR-8 ovarian
  TGI: > 100 µM
M14 melanoma
  TGI: > 100 µM
SF-539 CNS
  TGI: > 100 µM
ACHN renal
  TGI: > 100 µM
SR leukemia
  TGI: > 100 µM
UACC-62 melanoma
  TGI: > 100 µM
HCT-15 colon
  TGI: > 100 µM
UACC-257 melanoma
  TGI: > 100 µM
LOX IMVI melanoma
  TGI: > 100 µM
BT-549 breast
  TGI: > 100 µM
SK-OV-3 ovarian
  TGI: > 100 µM
HT29 colon
  TGI: > 100 µM
SN12C renal
  TGI: > 100 µM
T-47D breast
  TGI: > 100 µM
U251 CNS
  TGI: > 100 µM
UO-31 renal
  TGI: > 100 µM
SK-MEL-2 melanoma
  TGI: > 100 µM
NCI-H23 lung
  TGI: > 100 µM

## Cc1cccc(N2C(=O)C3c4[nH]c5ccccc5c4C4CCC(C(C)(C)C)CC4C3C2=O)c1 (stereo not drawn)
KM12 colon
  TGI: 25.2 µM
DU-145 prostate
  TGI: 33.4 µM
SNB-19 CNS
  TGI: 26 µM
EKVX NSCLC
  TGI: 31.4 µM
OVCAR-3 ovarian
  TGI: 27.4 µM
HOP-62 NSCLC
  TGI: 13.3 µM
MDA-MB-435
  TGI: 29.6 µM
SK-MEL-28 melanoma
  TGI: 31.4 µM
IGROV1 ovarian
  TGI: 16.4 µM
MDA-N
  TGI: 30.7 µM
NCI-H522 lung
  TGI: 24.3 µM
786-0 renal
  TGI: 12.2 µM
HS 578T breast
  TGI: 29.2 µM
PC-3 prostate
  TGI: 24.8 µM
NCI-H460 lung
  TGI: 19 µM
A498 renal
  TGI: 25.8 µM
NCI/ADR-RES ovarian
  TGI: 32.2 µM
MOLT-4 leukemia
  TGI: 21.3 µM
TK-10 renal
  TGI: 27.2 µM
COLO 205 colon
  TGI: 24.2 µM
CCRF-CEM leukemia
  TGI: 23.5 µM
MDA-MB-231 breast
  TGI: 21.3 µM
NCI-H226 lung
  TGI: 34.1 µM
SK-MEL-5 melanoma
  TGI: 28.4 µM
RXF 393 renal
  TGI: 26.3 µM
HCT-116 colon
  TGI: 21.2 µM
SF-268 CNS
  TGI: 13.7 µM
HL-60(TB) leukemia
  TGI: > 100 µM
MALME-3M melanoma
  TGI: 28 µM
OVCAR-4 ovarian
  TGI: 25.7 µM
SW-620 colon
  TGI: 24.1 µM
K-562 leukemia
  TGI: 17.4 µM
MCF7 breast
  TGI: 24.5 µM
A549 NSCLC
  TGI: 22.3 µM
SF-295 CNS
  TGI: 21.9 µM
CAKI-1 renal
  TGI: 26.1 µM
OVCAR-5 ovarian
  TGI: 35.2 µM
RPMI-8226 leukemia
  TGI: 25.8 µM
OVCAR-8 ovarian
  TGI: 13.3 µM
M14 melanoma
  TGI: 28.3 µM
ACHN renal
  TGI: 17.7 µM
UACC-62 melanoma
  TGI: 49 µM
HCT-15 colon
  TGI: > 100 µM
UACC-257 melanoma
  TGI: 44.6 µM
LOX IMVI melanoma
  TGI: 12.9 µM
BT-549 breast
  TGI: 33.5 µM
HT29 colon
  TGI: 28.9 µM
SN12C renal
  TGI: 30.5 µM
T-47D breast
  TGI: > 100 µM
U251 CNS
  TGI: 47.8 µM
UO-31 renal
  TGI: 28.6 µM
SK-MEL-2 melanoma
  TGI: 34.4 µM
NCI-H23 lung
  TGI: 30.1 µM
